Six compounds from publication PMC5890513 (Antiviral Chemistry & Chemotherapy, 2017) can be followed below.

Each structure is given as a SMILES string. Bounds are passed on as bounds.

The subject of series [1] is SFTSV. Briefly: microbe, parasite or virus in culture. In kind it is cell-based, severe fever with thrombocytopenia syndrome virus. The note with it: for EC50: Severe fever with thrombocytopenia syndrome virus, Vero, 72 h, read-out: EC50 (50% effective concentration), anti-SFTSV activity.
For series [2], the system named is Vero cells.
The nature of series [3]: in vitro. The note with it: monkey.

For the compound `NC(=O)c1ncn([C@@H]2O[C@H](CO)[C@@H](O)[C@H]2O)n1` [Ribavirin], in series [1], the “anti-SFTSV activity (intracellular SFTSV RNA level), in words” value (shortened to “anti-SFTSV activity”) is given as “reduced the intracellular SFTSV RNA level in a dose-dependent manner” and the EC50 came to 40.1 ± 16.3 µM. Besides, the “viability of mock-infected Vero cells” value in series [2] is “did not reduce the viability”. Besides, the CC50 in series [3] was more than 100 µM.

Consider `CCN(CC)Cc1cc(Nc2ccnc3cc(F)ccc23)ccc1O` [Compound 2, 4-(7-Fluoroquinolin-4-ylamino)-2-diethylaminomethylphenol], for which the EC50 in series [1] was found to be 36.6 ± 9.3 µM. The same compound displayed a CC50 in series [3] of more than 100 µM.

With `CCN(CC)Cc1cc(Nc2ccnc3cc(Cl)ccc23)ccc1O` [Compound 1, 4-(7-Chloroquinolin-4-ylamino)-2-diethylaminomethylphenol], in series [1], the “anti-SFTSV activity” value was “selective inhibitor of SFTSV replication” and the EC50 was determined as 19.1 ± 5.1 µM. Moreover, in series [3], the CC50 was more than 100 µM.

In the case of `NC(=O)c1nc(F)c[nH]c1=O` [Favipiravir], in series [1], the “anti-SFTSV activity” value was “reduced the intracellular SFTSV RNA level in a dose-dependent manner” and the EC50 came to 25 ± 9.3 µM. For the same compound, the “viability of mock-infected Vero cells” value in series [2] is given as “did not reduce the viability”. Moreover, the CC50 in series [3] is more than 100 µM.

Consider `CCN(CC)Cc1cc(Nc2ccnc3cc(I)ccc23)ccc1O` [Compound 4, 4-(7-Iodoquinolin-4-ylamino)-2-diethylaminomethylphenol], for which the EC50 in series [1] stood at 15.6 ± 4.9 µM. The compound also yielded a CC50 in series [3] of more than 100 µM.

In the case of `CCN(CC)Cc1cc(Nc2ccnc3cc(Br)ccc23)ccc1O` [Compound 3, 4-(7-Bromoquinolin-4-ylamino)-2-diethylaminomethylphenol], the EC50 in series [1] turned out to be 31.1 ± 16.8 µM. In series [3], this compound yielded a CC50 of more than 100 µM.
